According to patent US5556744A, “Methods and compositions for diagnosing and treating certain HIV infected patients” (The Trustees of the University of Pennsylvania, priority 1994, dated 1996):

What was measured:
[1] = test system: maternal serum samples (antibodies); test: ELISA peptide-binding of maternal sera, expanded peptide collection (Example 5); parameters: species or system human; details: Example 5
Description: The gp120 and gp41 peptides used in this experiment include peptides 60 [SEQ ID NO:9], 93 [SEQ ID NO:10], 94 [SEQ ID NO:1], 95 [SEQ ID NO:11], 96 [SEQ ID NO:12], 97 [SEQ ID NO:13], 59 [SEQ ID NO:14], 106 [SEQ ID NO:15], 107 [SEQ ID NO:[…]], 1029/33 [SEQ ID NO:2], p18p [SEQ ID NO:17], B138 [SEQ ID NO:3], 466 [SEQ ID NO:4], 497 [SEQ ID NO:18], 117 [SEQ ID NO:19], F560 [SEQ ID NO:20], 35 [SEQ ID NO:5], 120 [SEQ ID NO:21], 121 [SEQ ID NO:22], 123 [SEQ ID NO:23], 36 [SEQ ID NO:24], 40 [SEQ ID NO:25], 41 [SEQ ID NO:26], 649 [SEQ ID NO:6], 53 [SEQ ID NO:7], 55 [SEQ ID NO:27], 128 [SEQ ID NO:28], 129 [SEQ ID NO:29], 132 [SEQ ID NO:30], 57 [SEQ ID NO:8], and 1103/55 [SEQ ID NO:31] from Table 2. These peptides were synthesized based on the same HIV IIIB isolate as were the peptides of Table 2. Alternative designations for these peptides are provided in brackets.
Each of the peptides was at least 85% pure, making them suitable for ELISA analyses. The average length of these peptides was 18 amino acid residues, which allows for a certain degree of local flexibility and conformational folding, thus facilitating detection of antibody species with reactivities to shaped structures.
The maternal serum samples were obtained from the Mothers/Infants Cohort Study described in Example 1. For the ELISA peptide-binding analyses performed essentially as described in Example 3, maternal serum samples were diluted to 1:50 or 1:500 with blocking buffer (1% bovine serum albumin in phosphate-buffered saline containing 0.05% Tween 20). Binding was measured using 10 μg/mL peptide per well and was considered positive if the experimental/control OD450nm ratio was ≥2. Normal (HIV seronegative) human sera were used as controls.

[2] = test system: maternal HIV+ sera (antibodies); test: RIA / ELISA binding of maternal HIV+ sera to gp120 and gp41 peptides (Example 3); parameters: species or system human
In short: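 Peptides were coated at 10 μg/ml in carbonate buffer pH 9.6 and blocked with 1% BSA. Sera at 1:50 and 1:500 were incubated overnight at 4°C and detected with ¹²⁵I anti-human IgG (RIA) or HRP/TMB at OD450 (ELISA). Specific binding was taken as peptide minus no-peptide wells, scored as a ratio to normal human serum.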

THACVPTDPNPQEVV [Peptide 95]
Binding / reactivity of maternal sera to peptide (in words) [1]: Differences in binding between the transmission and non-transmission groups are noted | Number of maternal sera binding to peptide ([2]; 20 maternal sera): three | Binding of maternal sera to peptide (in words) ([2]; Example 3): Several maternal serum samples had reactivity | Binding of maternal HIV+ serum to peptide (sera/NHS ratio) ([2]; Serum No. 1, Non-Transmission Group): + (which value is between 2 to 3) | Binding of maternal HIV+ serum to peptide (sera/NHS ratio) ([2]; Serum No. 2, Non-Transmission Group): - (specific OD450 or cpm of sera sample binding to peptide divided by the specific OD450 or cpm of NHS sample binding to peptide, which value is less than 2) | Binding of maternal HIV+ serum to peptide (sera/NHS ratio) ([2]; Serum No. 3, Non-Transmission Group): - (specific OD450 or cpm of sera sample binding to peptide divided by the specific OD450 or cpm of NHS sample binding to peptide, which value is less than 2) | Binding of maternal HIV+ serum to peptide (sera/NHS ratio) ([2]; Serum No. 4, Transmission Group): - (specific OD450 or cpm of sera sample binding to peptide divided by the specific OD450 or cpm of NHS sample binding to peptide, which value is less than 2) | Binding of maternal HIV+ serum to peptide (sera/NHS ratio) ([2]; Serum No. 5, Transmission Group): - (specific OD450 or cpm of sera sample binding to peptide divided by the specific OD450 or cpm of NHS sample binding to peptide, which value is less than 2) | Binding of maternal HIV+ serum to peptide (sera/NHS ratio) ([2]; Serum No. 6, Non-Transmission Group): - (specific OD450 or cpm of sera sample binding to peptide divided by the specific OD450 or cpm of NHS sample binding to peptide, which value is less than 2) | Binding of maternal HIV+ serum to peptide (sera/NHS ratio) ([2]; Serum No. 7, Non-Transmission Group): - (specific OD450 or cpm of sera sample binding to peptide divided by the specific OD450 or cpm of NHS sample binding to peptide, which value is less than 2) | Binding of maternal HIV+ serum to peptide (sera/NHS ratio) ([2]; Serum No. 8, Non-Transmission Group): - (specific OD450 or cpm of sera sample binding to peptide divided by the specific OD450 or cpm of NHS sample binding to peptide, which value is less than 2) | Binding of maternal HIV+ serum to peptide (sera/NHS ratio) ([2]; Serum No. 9, Non-Transmission Group): - (specific OD450 or cpm of sera sample binding to peptide divided by the specific OD450 or cpm of NHS sample binding to peptide, which value is less than 2) | Binding of maternal HIV+ serum to peptide (sera/NHS ratio) ([2]; Serum No. 10, Transmission Group): - (specific OD450 or cpm of sera sample binding to peptide divided by the specific OD450 or cpm of NHS sample binding to peptide, which value is less than 2) | Binding of maternal HIV+ serum to peptide (sera/NHS ratio) ([2]; Serum No. 11, Non-Transmission Group): + (which value is between 2 to 3) | Binding of maternal HIV+ serum to peptide (sera/NHS ratio) ([2]; Serum No. 12, Non-Transmission Group): - (specific OD450 or cpm of sera sample binding to peptide divided by the specific OD450 or cpm of NHS sample binding to peptide, which value is less than 2) | Binding of maternal HIV+ serum to peptide (sera/NHS ratio) ([2]; Serum No. 13, Transmission Group): - (specific OD450 or cpm of sera sample binding to peptide divided by the specific OD450 or cpm of NHS sample binding to peptide, which value is less than 2) | Binding of maternal HIV+ serum to peptide (sera/NHS ratio) ([2]; Serum No. 14, Transmission Group): ++ (which value is greater than 3) | Binding of maternal HIV+ serum to peptide (sera/NHS ratio) ([2]; Serum No. 15, Transmission Group): - (specific OD450 or cpm of sera sample binding to peptide divided by the specific OD450 or cpm of NHS sample binding to peptide, which value is less than 2) | Binding of maternal HIV+ serum to peptide (sera/NHS ratio) ([2]; Serum No. 16, Non-Transmission Group): - (specific OD450 or cpm of sera sample binding to peptide divided by the specific OD450 or cpm of NHS sample binding to peptide, which value is less than 2) | Binding of maternal HIV+ serum to peptide (sera/NHS ratio) ([2]; Serum No. 17, Non-Transmission Group): - (specific OD450 or cpm of sera sample binding to peptide divided by the specific OD450 or cpm of NHS sample binding to peptide, which value is less than 2) | Binding of maternal HIV+ serum to peptide (sera/NHS ratio) ([2]; Serum No. 18, Non-Transmission Group): - (specific OD450 or cpm of sera sample binding to peptide divided by the specific OD450 or cpm of NHS sample binding to peptide, which value is less than 2) | Binding of maternal HIV+ serum to peptide (sera/NHS ratio) ([2]; Serum No. 19, Transmission Group): - (specific OD450 or cpm of sera sample binding to peptide divided by the specific OD450 or cpm of NHS sample binding to peptide, which value is less than 2) | Binding of maternal HIV+ serum to peptide (sera/NHS ratio) ([2]; Serum No. 20, Non-Transmission Group): - (specific OD450 or cpm of sera sample binding to peptide divided by the specific OD450 or cpm of NHS sample binding to peptide, which value is less than 2) | Number of binding maternal sera from the transmission group ([2]; vertical transmission group (7 sera)): one
